Assay results from patent publication US4272437A, “Antibacterial agents, and 4-thio azetidinone intermediates” (priority 1979, dated 1981).
In brackets after ≈: the same amount, converted by molar mass. Where two headings read alike, the source gives them in different places.

Key:
Ser. marcescens A-20019 = test: MIC, tube dilution, Serratia marcescens A20019; format: cell-based; settings: Serratia marcescens, A20019, Serratia marcescens A20019; overnight 37° C.; read-out: Minimum Inhibitory Concentration (M.I.C.)
Source text: (§1) Representative compounds of the present invention were subjected to in vitro antibiotic screening against a variety of microorganisms.

Staph. aureus A-9537 = test: MIC, tube dilution, Staphylococcus aureus A9537; format: cell-based; settings: Staphylococcus aureus, A9537, Staph. aureus A9537; overnight 37° C., Nutrient Broth; read-out: Minimum Inhibitory Concentration (M.I.C.)
Source text: as §1

Str. pneumoniae A-9585 = test: MIC, tube dilution, Streptococcus pneumoniae A9585; format: cell-based; settings: Streptococcus pneumoniae, A9585, Str. pneumoniae A9585; overnight 37° C., Nutrient Broth; read-out: Minimum Inhibitory Concentration (M.I.C.)
Source text: as §1

[1] = system: Klebsiella species A20468; test: MIC, tube dilution, Klebsiella species A20468; format: cell-based; settings: Klebsiella species (K. pneumoniae) A20468; overnight 37° C.; read-out: Minimum Inhibitory Concentration (M.I.C.)
Source text: as §1

[2] = system: Staph. aureus (Pen-Res) A-9606; test: MIC, tube dilution, Staphylococcus aureus A9606 (Pen-Res); format: cell-based; settings: Staphylococcus aureus, Staph. aureus A9606 (Pen-Res); overnight 37° C.; read-out: Minimum Inhibitory Concentration (M.I.C.)
Source text: as §1

[3] = system: Staph. aureus (Meth-Res) A-15097; test: MIC, tube dilution, Staphylococcus aureus A15097 (Meth-Res); format: cell-based; settings: Staph. aureus A15097 (Meth-Res), overnight 37° C.
Source text: as §1

E. coli A-15119 = test: MIC, tube dilution, Escherichia coli A15119; format: cell-based; settings: Escherichia coli, A15119, E. coli A15119; overnight 37° C.; read-out: Minimum Inhibitory Concentration (M.I.C.)
Source text: as §1

Ps. aeruginosa A-21213 = test: MIC, tube dilution, Pseudomonas aeruginosa A21213; format: cell-based; settings: overnight 37° C., read-out: Minimum Inhibitory Concentration (M.I.C.)
Source text: as §1

S. aureus A9537 = test: In vivo protection of mice, lethal infection with S. aureus A9537; settings: Staphylococcus aureus, A9537, im, IM, 2 treatments, read-out: PD50
Procedure: Representative compounds of the present invention were also tested in vivo in mice and their PD50 (dose of compound in mg/kg required to protect 50% of the treated mice against an otherwise lethal infection of a micro-organism) values determined with respect to the test organisms shown below.

[4] = system: Staph. aureus A-9537 and 50% serum; test: MIC, tube dilution, Staph. aureus A9537 + 50% serum; format: cell-based, Staphylococcus aureus; settings: Staphylococcus aureus, overnight 37° C., read-out: Minimum Inhibitory Concentration (M.I.C.)
Source text: as §1

Ent. cloacae A-9656 = test: MIC, tube dilution, Enterobacter cloacae A9656; format: cell-based; settings: Enterobacter cloacae, A9656, Enterobacter cloacae A9656; overnight 37° C.; read-out: Minimum Inhibitory Concentration (M.I.C.)
Source text: as §1

Pr. mirabilis A-9900 = test: MIC, tube dilution, Proteus mirabilis A9900; format: cell-based; settings: Proteus mirabilis, A9900, Proteus mirabilis A9900; overnight 37° C.; read-out: Minimum Inhibitory Concentration (M.I.C.)
Source text: as §1

Pr. morganii A-15153 = test: MIC, tube dilution, Proteus morganii A15153; format: cell-based; settings: Morganella morganii, A15153, Proteus morganii A15153; overnight 37° C.; read-out: Minimum Inhibitory Concentration (M.I.C.)
Source text: as §1

Str. pyogenes A-9604 = test: MIC, tube dilution, Streptococcus pyogenes A9604; format: cell-based; settings: Streptococcus pyogenes, A9604, Str. pyogenes A9604; overnight 37° C., Nutrient Broth; read-out: Minimum Inhibitory Concentration (M.I.C.)
Source text: as §1

Proteus rettgeri A21203 = test: MIC, tube dilution, Proteus rettgeri A21203; format: cell-based; settings: Providencia rettgeri, A21203, Proteus rettgeri A21203; overnight 37° C.; read-out: Minimum Inhibitory Concentration (M.I.C.)
Source text: as §1

[5] = Mouse blood levels after intramuscular administration; format: in vivo; settings: average of 6 mice, read-out: Mouse blood level; for concentration at 10 min: 10 minutes after IM 40 mg/kg; for concentration at 20 min: 20 minutes after IM 40 mg/kg; for concentration at 0.5 h: 30 minutes after IM 40 mg/kg; for concentration at 0.75 h: 45 minutes after IM 40 mg/kg; for concentration at 1 h: 60 minutes after IM 40 mg/kg; for concentration at 1.5 h: 90 minutes after IM 40 mg/kg; for concentration at 2 h: 120 minutes after IM 40 mg/kg
Procedure: Mouse blood levels after intramuscular administration of representative compounds of the present invention were determined and are reported in the table below.

Pr. vulgaris A-9716 = test: MIC, tube dilution, Proteus vulgaris / Proteus mirabilis A9716; format: cell-based, Proteus vulgaris (name changed to Proteus mirabilis); settings: Proteus vulgaris, A9716, Proteus vulgaris / Proteus mirabilis A9716; overnight 37° C.; read-out: Minimum Inhibitory Concentration (M.I.C.)
Source text: as §1

K. pneumoniae A-15130 = test: MIC, tube dilution, Klebsiella pneumoniae A15130; format: cell-based; settings: Klebsiella pneumoniae, A15130, K. pneumoniae A15130; overnight 37° C.; read-out: Minimum Inhibitory Concentration (M.I.C.)
Source text: as §1

E. coli A-20341-1 = test: MIC, tube dilution, Escherichia coli A20341-1; format: cell-based
Source text: as §1

Ps. aeruginosa A-9843A = test: MIC, tube dilution, Pseudomonas aeruginosa A9843A; format: cell-based; settings: Pseudomonas aeruginosa, A9843A, read-out: Minimum Inhibitory Concentration (M.I.C.), Pseudomonas aeruginosa A9843A; overnight 37° C.
Source text: as §1

Ent. cloacae A-9659 = test: MIC, tube dilution, Enterobacter cloacae A9659; format: cell-based; settings: Enterobacter cloacae, A9659, Enterobacter cloacae A9659; overnight 37° C.; read-out: Minimum Inhibitory Concentration (M.I.C.)
Source text: as §1

Str. faecalis A-20688 = test: MIC, tube dilution, Streptococcus faecalis A20688; format: cell-based; settings: overnight 37° C.
Source text: as §1

Proteus vulgaris A21559 = test: MIC, tube dilution, Proteus vulgaris A21559; format: cell-based; settings: Proteus vulgaris, A21559, Proteus vulgaris A21559; overnight 37° C.; read-out: Minimum Inhibitory Concentration (M.I.C.)
Source text: as §1

| Structure (SMILES) | MIC (Ser. marcescens A-20019) | MIC (Staph. aureus A-9537) | MIC (Str. pneumoniae A-9585) | MIC [1] | MIC [2] | MIC (E. coli A-15119) | MIC [4] | MIC (Ent. cloacae A-9656) | MIC (Pr. mirabilis A-9900) | MIC (Pr. morganii A-15153) | MIC (Str. pyogenes A-9604) | MIC (Proteus rettgeri A21203) | concentration at 10 min [5] | concentration at 20 min [5] | concentration at 0.5 h [5] | concentration at 0.75 h [5] | concentration at 1 h [5] | concentration at 1.5 h [5] | concentration at 2 h [5] | MIC (K. pneumoniae A-15130) | other results |
| --- | --- | --- | --- | --- | --- | --- | --- | --- | --- | --- | --- | --- | --- | --- | --- | --- | --- | --- | --- | --- | --- |
| NCCCC1=C(C(=O)O)N2C(=O)CC2S1 (centres unmarked) [Example 22, Sodium 2-Aminopropylpenem-3-carboxylate] | 32 µg/mL | 2 µg/mL | 0.25 µg/mL | > 125 µg/mL | 63 µg/mL | 16 µg/mL | 63 µg/mL | 32 µg/mL | 16 µg/mL | 32 µg/mL | 2 µg/mL | 16 µg/mL | 36500 ng/mL | 39900 ng/mL | 31500 ng/mL | 16500 ng/mL | 11500 ng/mL | 5700 ng/mL | 3100 ng/mL | 32 µg/mL | Minimum Inhibitory Concentration (M.I.C.) [3]: 125 µg/mL; MIC (Ps. aeruginosa A-21213; Pseudomonas aeruginosa A21213): 125 µg/mL; ED50 (S. aureus A9537; 1.1 × 10^6 organisms): 0.63 mg/kg; MIC (Pr. vulgaris A-9716): 16 µg/mL; MIC (E. coli A-20341-1; Escherichia coli, A203411; E. coli A20341-1; overnight 37° C.; read-out: Minimum Inhibitory Concentration (M.I.C.)): 125 µg/mL; MIC (Ps. aeruginosa A-9843A): 125 µg/mL; MIC (Ent. cloacae A-9659): 16 µg/mL; Minimum Inhibitory Concentration (M.I.C.) (Str. faecalis A-20688; Str. faecalis A20688): 125 µg/mL |
| NCCOCC1=C(C(=O)O)N2C(=O)CC2S1 (centres unmarked) [Example 86, 2-(2-Aminoethoxymethyl)penem-3-carboxylic Acid] | 2 µg/mL (≈ 8.19 µM) | 0.13 µg/mL (≈ 0.532 µM) | 0.13 µg/mL (≈ 0.532 µM) | > 125 µg/mL | 32 µg/mL (≈ 131 µM) | 2 µg/mL (≈ 8.19 µM) | 1 µg/mL | 4 µg/mL (≈ 16.4 µM) | 2 µg/mL (≈ 8.19 µM) | 8 µg/mL (≈ 32.8 µM) | 0.13 µg/mL (≈ 0.532 µM) | 2 µg/mL (≈ 8.19 µM) | 36000 ng/mL | 26300 ng/mL | 16500 ng/mL | 7500 ng/mL | 4000 ng/mL | < 3100 ng/mL | < 3100 ng/mL | 4 µg/mL (≈ 16.4 µM) | MIC ([3]; Staphylococcus aureus, read-out: Minimum Inhibitory Concentration (M.I.C.)): 125 µg/mL (≈ 512 µM); MIC (Ps. aeruginosa A-21213; Pseudomonas aeruginosa, A21213, Pseudomonas aeruginosa A21213): 125 µg/mL (≈ 512 µM); ED50 (S. aureus A9537; 1 × 10^6 organisms): 1.9 mg/kg; MIC (Proteus vulgaris A21559): 8 µg/mL (≈ 32.8 µM); MIC (E. coli A-20341-1; Escherichia coli, A203411, E. coli A20341-1; overnight 37° C.; read-out: Minimum Inhibitory Concentration (M.I.C.)): 8 µg/mL (≈ 32.8 µM); MIC (Ps. aeruginosa A-9843A): 63 µg/mL (≈ 258 µM); MIC (Ent. cloacae A-9659): 8 µg/mL (≈ 32.8 µM); MIC (Str. faecalis A-20688; Enterococcus faecalis, A20688, Str. faecalis A20688, read-out: Minimum Inhibitory Concentration (M.I.C.)): 32 µg/mL (≈ 131 µM) |
